Measurements published in patent publication US8268781B2.
Like-named read-outs stand apart in the source and are kept apart here.

Assay: Ex vivo bio-distribution studies
Conditions: In-111 labeled, 555 kBq tail vein, mean of 4 mice; for tissue uptake at 1 h / tissue uptake at 4 h / tissue uptake at 24 h: mouse, iv, total radioactivity; for tissue uptake at 1 h: 1 h p.i.
Procedure: The in vivo bio-distribution can, for example, be shown in rodents such as hairless mice. For this purpose […] CHO cells are injected into hairless mice. After approx. 3 to 5 weeks tumors approx. 300 mg in size had grown.
1, 4 und 24 h p.i. all the mice are killed and their organs removed.
The uptake of radioactivity is measured and the organs are weighed. The % of injected dose program of organ weight is calculated.
Mean value from the bio-distribution with 4 mice pro group in % i.D./g Stadev: standard deviation.

Uptake in Blood (4 h p.i.): 0.00 % i.D./g | Uptake in Muscle (4 h p.i.): 0.00 % i.D./g | Uptake in Blood (24 h p.i.): 0.00 % i.D./g | Uptake in Heart (24 h p.i.): 0.00 % i.D./g | Uptake in Muscle (24 h p.i.): 0.00 % i.D./g | tissue uptake at 1 h (hairless mice, pancreas, read-out: Uptake in Pancreas): 0.58 %ID/g | tissue uptake at 4 h (hairless mice, pancreas, 4 h p.i., read-out: Uptake in Pancreas): 0.62 %ID/g | tissue uptake at 1 h (hairless mice, spleen, read-out: Uptake in Spleen): 0.02 %ID/g | tissue uptake at 4 h (hairless mice, spleen, 4 h p.i., read-out: Uptake in Spleen): 0.01 %ID/g | tissue uptake at 24 h (hairless mice, spleen, 24 h p.i., read-out: Uptake in Spleen): 0.01 %ID/g | tissue uptake at 1 h (hairless mice, stomach, read-out: Uptake in Stomach): 0.14 %ID/g | tissue uptake at 4 h (hairless mice, stomach, 4 h p.i., read-out: Uptake in Stomach): 0.13 %ID/g | tissue uptake at 24 h (hairless mice, stomach, 24 h p.i., read-out: Uptake in Stomach): 0.07 %ID/g | tissue uptake at 24 h (hairless, GLP-1 receptor negative tumor, 24 h p.i., read-out: Uptake in Tumor− (GLP-1 receptor negative tumor)): 0.01 %ID/g | tissue uptake at 1 h (hairless, GLP-1 receptor positive tumor, read-out: Uptake in Tumor+ (GLP-1 receptor positive tumor)): 0.42 %ID/g | tissue uptake at 4 h (hairless, GLP-1 receptor positive tumor, 4 h p.i., read-out: Uptake in Tumor+ (GLP-1 receptor positive tumor)): 0.31 %ID/g | tissue uptake at 24 h (hairless, GLP-1 receptor positive tumor, 24 h p.i., read-out: Uptake in Tumor+ (GLP-1 receptor positive tumor)): 0.2 %ID/g | tissue uptake at 1 h (hairless, blood, read-out: Uptake in Blood): 0.01 %ID/g | tissue uptake at 1 h (hairless, liver, read-out: Uptake in Liver): 0.03 %ID/g | tissue uptake at 4 h (hairless, liver, 4 h p.i., read-out: Uptake in Liver): 0.01 %ID/g | tissue uptake at 24 h (hairless, liver, 24 h p.i., read-out: Uptake in Liver): 0.01 %ID/g | tissue uptake at 1 h (GLP-1 receptor negative tumor, read-out: Uptake in Tumor− (GLP-1 receptor negative tumor)): 0.03 %ID/g | tissue uptake at 4 h (GLP-1 receptor negative tumor, 4 h p.i., read-out: Uptake in Tumor− (GLP-1 receptor negative tumor)): 0.02 %ID/g | tissue uptake at 1 h (bones, read-out: Uptake in Bones): 0.02 %ID/g | tissue uptake at 4 h (bones, 4 h p.i., read-out: Uptake in Bones): 0.01 %ID/g | tissue uptake at 24 h (bones, 24 h p.i., read-out: Uptake in Bones): 0.01 %ID/g | tissue uptake at 1 h (heart, read-out: Uptake in Heart): 0.02 %ID/g | tissue uptake at 4 h (heart, 4 h p.i., read-out: Uptake in Heart): 0.01 %ID/g | tissue uptake at 1 h (intestine, read-out: Uptake in Intestine): 0.12 %ID/g | tissue uptake at 4 h (intestine, 4 h p.i., read-out: Uptake in Intestine): 0.07 %ID/g | tissue uptake at 24 h (intestine, 24 h p.i., read-out: Uptake in Intestine): 0.04 %ID/g | tissue uptake at 1 h (kidneys, read-out: Uptake in Kidneys): 7.9 %ID/g | tissue uptake at 4 h (kidneys, 4 h p.i., read-out: Uptake in Kidneys): 7.41 %ID/g | tissue uptake at 24 h (kidneys, 24 h p.i., read-out: Uptake in Kidneys): 4.85 %ID/g | tissue uptake at 1 h (lungs, read-out: Uptake in Lungs): 0.8 %ID/g | tissue uptake at 4 h (lungs, 4 h p.i., read-out: Uptake in Lungs): 0.36 %ID/g | tissue uptake at 24 h (lungs, 24 h p.i., read-out: Uptake in Lungs): 0.22 %ID/g | tissue uptake at 1 h (muscle, read-out: Uptake in Muscle): 0.01 %ID/g | tissue uptake at 24 h (pancreas, 24 h p.i., read-out: Uptake in Pancreas): 0.37 %ID/g
Compound: CC[C@H](C)[C@H](NC(=O)[C@H](Cc1ccccc1)NC(=O)[C@H](CCC(=O)O)NC(=O)[C@H](CCCCN)NC(=O)[C@H](C)NC(=O)[C@H](C)NC(=O)[C@H](CCC(N)=O)NC(=O)CNC(=O)[C@H](CCC(=O)O)NC(=O)[C@H](CC(C)C)NC(=O)[C@H](Cc1ccc(O)cc1)NC(=O)[C@H](CO)NC(=O)[C@H](CO)NC(=O)[C@@H](NC(=O)[C@H](CC(=O)O)NC(=O)[C@H](CO)NC(=O)[C@@H](NC(=O)[C@H](Cc1ccccc1)NC(=O)[C@@H](NC(=O)CNC(=O)[C@H](CCC(=O)O)NC(=O)[C@H](C)NC(=O)[C@@H](N)Cc1c[nH]cn1)[C@@H](C)O)[C@@H](C)O)C(C)C)C(=O)N[C@@H](C)C(=O)N[C@@H](Cc1c[nH]c2ccccc12)C(=O)N[C@@H](CC(C)C)C(=O)N[C@H](C(=O)N[C@@H](CCCCN)C(=O)NCC(=O)N[C@@H](CCCNC(=N)N)C(=O)N[C@@H](CCCCNC(=O)CN(CCN(CCN(CC(=O)O)CC(=O)O)CC(=O)O)CC(=O)O)C(N)=O)C(C)C [MC10, (DTPA-Lys^37) GLP1 (7-36) amide]
